Source: patent US20120277211A1, “METHODS AND COMPOSITIONS FOR THE TREATMENT OF PSYCHOTIC DISORDERS THROUGH THE IDENTIFICATION OF THE SULT4A1-1 HAPLOTYPE” (priority 2009, published 2012)
Like-named read-outs stand apart in the source and are kept apart here. Marks after values point to notes of the source that are not given here.

How the values were obtained:
[1] = system: Caucasian schizophrenia patients; assay: CATIE Phase I: change in total PANSS (LOCF) by SULT4A1-1 haplotype status, Caucasians; format: in vivo, human; conditions: for Percent change from baseline PANSS scores, mean (standard deviation): Phase I; for Percent change from baseline PANSS scores, mean (standard deviation) / Number of individuals with change in total PANSS ≦−20% (responders) / Number of individuals with change in total PANSS ≧−20% (non-responders) / Responders: LOCF; for Number of individuals with change in total PANSS ≦−20% (responders) / Number of individuals with change in total PANSS ≧−20% (non-responders) / Responders: CATIE Caucasians; for Responders: change in PANSS ≦−20%
Text: There are several different metrics for quantifying response in clinical trials of antipsychotic medications. The most commonly used psychometric instrument is the Positive and Negative Syndrome Scale (PANSS), a 30-item semi-quantitative instrument scored by clinical professionals (Kay et al., 1987). The greater the decrease in PANSS score, the better the clinical response. The most direct measure of clinical response is absolute change in PANSS score. In addition to absolute change, the improvement is often reported as a percentage change from baseline PANSS score.
A decrease of at least 20% in total PANSS is one commonly used threshold for response (Leucht et al., 2009).
The design of the CATIE study has been described in detail by others (Lieberman et al., 2005; Stroup et al., 2003). […] A total of 738 subjects consented to provide DNA for genetic study. […] Retrospective genetic analyses, judged to be exempt from human studies requirements by an IRB, were conducted in the current study.
All tested patients were studied using well established clinical endpoints comparing baseline, intermediate, and last observation carried forward (LOCF) for the PANSS scores using CATIE data. LOCF analysis is a commonly used clinical endpoint for clinical trials for neuropsychiatric drugs, with changes in PANSS scores of between negative 20% and negative 30% used as typical endpoints to indicate clinically significant response (Leucht et al., 2009). To remove time on drug as a variable for the CATIE trial, analysis was limited to only those patients who were randomized to a different drug following the initial washout period (drug switchers).
The CATIE clinical data set included baseline PANSS scores based on clinical assessments prior to initiation of the assigned therapy, but following the washout period for any patients previously on antipsychotic medication. Follow up PANSS data for the CATIE trial were collected at each visit as described in detail by others (Stroup et al., 2003).
Since follow-up on subjects was not done at uniform time intervals, analysis was done using the last observation for each patient in treatment Phase I of the trial as the measure of response (last observation carried forward, LOCF). Main effect and interaction terms between the SULT4A1-1 haplotype and drug therapy were included in the linear model. A pre-determined set of contrasts for differences in percent change PANSS by haplotype within each drug therapy (three comparisons) and by drug therapy within each haplotype (six comparisons) were evaluated, with adjustment for multiple-comparisons using the step-up false-discovery rate (FDR) controlling procedure (Benjamini and Hochberg, 1995). A sub-analysis omitting those patients who were randomized to the same antipsychotic drug therapy was also conducted.

[2] = system: African American schizophrenia patients; assay: CATIE: change in total PANSS (LOCF) by SULT4A1-1 haplotype status, African Americans; format: in vivo, human; conditions: for Number of individuals with change in total PANSS ≦−20% (responders) / Number of individuals with change in total PANSS ≧−20% (non-responders): LOCF
Description: The design of the CATIE study has been described in detail by others (Lieberman et al., 2005; Stroup et al., 2003). […] A total of 738 subjects consented to provide DNA for genetic study. […] Retrospective genetic analyses, judged to be exempt from human studies requirements by an IRB, were conducted in the current study. All tested patients were studied using well established clinical endpoints comparing baseline, intermediate, and last observation carried forward (LOCF) for the PANSS scores using CATIE data. […] To remove time on drug as a variable for the CATIE trial, analysis was limited to only those patients who were randomized to a different drug following the initial washout period (drug switchers).

[3] = system: Caucasian schizophrenia patients; assay: CATIE: time to discontinuation for all causes by SULT4A1-1 status; format: in vivo, human
Text: The primary endpoint for the CATIE study was time to discontinuation for all causes (Lieberman et al., 2005). Thus the inventors evaluated the effect of SULT41-1 status on this important parameter.

schizophrenia patients [4] = assay: CATIE: months of successful treatment measured by the CGI scale (TMSUCC1); format: in vivo, human
Text: The CATIE clinical data set included Clinical Global Impression (CGI) Scale, an observer-provided assessment of the psychiatric health of the patient (Stroup et al., 2003; Guy 1976). Patients are rated with the CGI Scale from 1 to 7, with higher scores indicating greater severity of illness. The CATIE study provided a response variable that measured the time (in months) of successful treatment as measured by the CGI scale (“TMSUCC1” in the CATIE data).

[5] = system: Caucasian schizophrenia patients; assay: CATIE: hospitalization due to exacerbation of psychosis by SULT4A1-1 status; format: in vivo, human
Text: To assess if SULT4A1-1 status impacts the risk of hospitalization in Caucasians, the inventors assigned SULT4A1-1 status to each CATIE subject and evaluated hospitalization events due to exacerbation of psychosis. For this analysis, the inventors assigned a dichotomous value (positive or negative) for hospitalization status to subjects in each phase of the trial based on only the first hospitalization event for a given patient in that phase. Patients participating in Phases 1, 2, and/or 3 were included in the totals for the appropriate drug.
A Kaplan-Meier survival analysis was performed to determine whether there was a difference between the survival (hospitalization) rates for the SULT4A1-1 negative and SULT4A1-1 positive patient populations treated with each of the atypical antipsychotics. Survival plots model the fraction of the population that survived (i.e., no hospitalization event) as a function of time.

schizophrenia patients [6] = conditions: Phase II; for Responders: decrease PANSS ≧20%, LOCF
[7] = system: unsegmented patient populations; conditions: cited from earlier work
[8] = comparator = labelled drug in SULT4A1-1+ patients
[9] = complete sample, SULT4A1-1+, labelled drug vs Risperidone
[10] = complete sample, within drug, SULT4A1-1+ vs SULT4A1-1−
[11] = randomized to a different medication, SULT4A1-1+, labelled drug vs Risperidone
[12] = randomized to a different medication, within drug, SULT4A1-1+ vs SULT4A1-1−

## OCCOCCN1CCN(C2=Nc3ccccc3Sc3ccccc32)CC1 [Quetiapine]
[1]; SULT4A1-1+
  Mean difference in total PANSS score between olanzapine and labelled drug, CATIE SULT4A1-1+: −12.9
[1]; SULT4A1-1+, complete sample
  Percent change from baseline PANSS scores, mean (standard deviation): −4.52 (17.6) %
[1]; SULT4A1-1+, patients randomized to a different medication
  Percent change from baseline PANSS scores, mean (standard deviation): −6.44 (19.0) %
[1]; SULT4A1-1 negative
  DELTA PANSS % (mean change in PANSS score from baseline to LOCF): 0*** %
  Number of individuals with change in total PANSS ≦−20% (responders): 13
  Number of individuals with change in total PANSS ≧−20% (non-responders): 50
  Responders: 20.6%**
[1]; SULT4A1-1 positive
  DELTA PANSS % (mean change in PANSS score from baseline to LOCF): −9** %
  Number of individuals with change in total PANSS ≧−20% (non-responders): 11
  Responders: 38.8%
[1]; SULT4A1-1 positive, randomized to a different drug
  Number of individuals with change in total PANSS ≦−20% (responders): 7
[1]; SULT4A1-1−
  Mean difference in total PANSS score between olanzapine and labelled drug, CATIE SULT4A1-1−: −3.8
[1]; SULT4A1-1−, complete sample
  Percent change from baseline PANSS scores, mean (standard deviation): 0.84 (26.5) %
[1]; SULT4A1-1−, patients randomized to a different medication
  Percent change from baseline PANSS scores, mean (standard deviation): 0.4 (26.7) %
[1]; Unsegmented
  Mean difference in total PANSS score between olanzapine and labelled drug, CATIE unsegmented: −6.2
[1]; [8]
  Effect size: olanzapine SULT4A1-1+ vs comparator group: 0.75
  Mean difference (95% CI) in delta PANSS: olanzapine SULT4A1-1+ minus comparator group: −14.9 (−28.3 to −1.5)
[1]; [9]
  Difference in percent change in PANSS score (first group minus second): −1.0%
  Difference in percent change in PANSS score, corrected for age, age of onset and sex: −0.54%
[1]; [10]
  Difference in percent change in PANSS score (first group minus second): −5.4%
  Difference in percent change in PANSS score, corrected for age, age of onset and sex: −2.65%
[1]; olanzapine-treated SULT4A1-1 positive versus labelled drug-treated SULT4A1-1 positive
  Effect Size attributable to SULT4A1-1 status in CATIE: −0.75^b
[1]; [11]
  Difference in percent change in PANSS score (first group minus second): −4.6%
  Difference in percent change in PANSS score, corrected for age, age of onset and sex: −3.33%
[1]; [12]
  Difference in percent change in PANSS score (first group minus second): −6.8%
  Difference in percent change in PANSS score, corrected for age, age of onset and sex: −2.91%
[2]; SULT4A1-1 negative
  Responders: 26.5%
  Number of individuals with change in total PANSS ≦−20% (responders): 9
  Number of individuals with change in total PANSS ≧−20% (non-responders): 25
[2]; SULT4A1-1 positive
  Responders: 33.3%
  Number of individuals with change in total PANSS ≦−20% (responders): 2
  Number of individuals with change in total PANSS ≧−20% (non-responders): 4
[3]; SULT4A1-1 negative
  Time to discontinuation, mean: 8.6*** Months
[3]; SULT4A1-1 positive
  Time to discontinuation, mean: 10.3 Months
Schizophrenia patients [4]; SULT4A1-1 negative
  Length of successful treatment (CGI Months), Mean: 4.22 Months
Schizophrenia patients [4]; SULT4A1-1 positive
  Length of successful treatment (CGI Months), Mean: 5.96^c Months
Schizophrenia patients [4]; Unsegmented
  Length of successful treatment (CGI Months), Mean: 4.65 Months
[5]; SULT4A1-1 negative
  HOSP, number of patients hospitalized: 24
  HOSP, rate of hospitalization: 19.5%
[5]; SULT4A1-1 positive
  HOSP, number of patients hospitalized: 1
  HOSP, rate of hospitalization: 2.9%
[5]; Unsegmented
  HOSP, rate of hospitalization: 15.9%
[5]; Unsegmented, Phases 1, 2 and/or 3, first event
  HOSP, number of patients hospitalized: 25
[5]; per drug
  Kaplan-Meier: difference between survival (no hospitalization) rates of SULT4A1-1 negative and positive patients: significant difference
Schizophrenia patients [6]; SULT4A1-1 Negative
  % Responders: 9.0%
  Nonresponders: 10
  Responders: 1
Schizophrenia patients [6]; SULT4A1-1 Positive
  % Responders: 0%
  Nonresponders: 1
  Responders: 0
[7]; first generation antipsychotics, Davis et al. (2003)
  Effect Size vs. FGA: 0.01
[7]; meta-analysis, Leucht et al. (2009), negative = greater reduction in PANSS
  Effect Size vs. Placebo: −0.42
[7]; unsegmented populations, Leucht et al. (2009)
  Mean difference in total PANSS score between olanzapine and labelled drug, Meta-analysis: −3.7
